The NIST ThermoML archive (doi:10.1016/j.jct.2016.02.009)

Assay: molar heat capacity at constant pressure
Conditions: 101.33 kPa, Crystal 2, Small (less than 1 g) adiabatic calorimetry

CCCCCCCCCCCCCCCCn1cc[n+](C)c1.O=S(=O)([N-]S(=O)(=O)C(F)(F)F)C(F)(F)F
Conditions | molar heat capacity at constant pressure [J/K/mol]
5 K | 3.58
5.4 K | 4.43
5.7 K | 5.11
6.07 K | 6
6.51 K | 7.15
7.03 K | 8.58
7.55 K | 10.13
8.08 K | 11.79
8.61 K | 13.56
9.15 K | 15.43
9.69 K | 17.38
10 K | 18.51
10.24 K | 19.41
10.84 K | 21.73
11.53 K | 24.47
12.23 K | 27.33
12.92 K | 30.31
13.62 K | 33.36
14.33 K | 36.54
15 K | 39.66
15.04 K | 39.85
15.87 K | 43.67
16.8 K | 48.11
17.74 K | 52.48
18.67 K | 56.86
19.62 K | 61.3
20 K | 63.15
20.86 K | 67.23
22.4 K | 74.52
23.97 K | 81.98
25 K | 86.78
25.53 K | 89.27
27.13 K | 96.62
28.72 K | 103.9
30 K | 109.7
30.29 K | 111.1
32.02 K | 118.8
33.92 K | 126.8
35 K | 131.4
35.82 K | 134.8
37.72 K | 142.5
39.62 K | 150
40 K | 151.7
41.61 K | 158
43.71 K | 166.2
45 K | 171.3
45.8 K | 174.3
47.91 K | 182.4
50 K | 190
50.02 K | 190.2
52.13 K | 197.8
54.23 K | 205.2
56.35 K | 212.4
58.48 K | 219.5
60 K | 224.6
60.6 K | 226.5
62.72 K | 233.3
64.85 K | 240.1
66.98 K | 246.6
69.1 K | 253.2
70 K | 255.9
71.33 K | 259.9
73.67 K | 266.6
76.02 K | 273.4
78.38 K | 280
80 K | 284.5
80.57 K | 286.3
80.73 K | 286.6
82.48 K | 291.2
83.09 K | 292.8
84.4 K | 296.1
86.33 K | 301.2
88.27 K | 306.3
90 K | 310.8
90.22 K | 311.2
92.18 K | 316.2
94.15 K | 321.1
96.13 K | 326.1
98.11 K | 331
100 K | 335.5
100.1 K | 335.8
102.15 K | 340.8
104.27 K | 345.7
106.4 K | 350.6
108.54 K | 355.4
110 K | 358.8
110.68 K | 360.3
112.83 K | 365
114.99 K | 369.8
117.15 K | 374.5
119.31 K | 379.2
120 K | 380.5
121.48 K | 383.7
123.65 K | 388.2
125.82 K | 392.8
128 K | 397.3
130 K | 401.4
130.17 K | 401.7
132.35 K | 406.2
134.53 K | 410.6
136.71 K | 415
138.9 K | 419.3
140 K | 421.7
141.08 K | 423.7
143.27 K | 428.1
145.46 K | 432.5
147.65 K | 436.9
149.84 K | 441.2
150 K | 441.5
152.03 K | 445.6
154.22 K | 449.8
156.4 K | 454.1
158.59 K | 458.5
160 K | 461.2
160.78 K | 462.8
162.97 K | 467.2
165.16 K | 471.4
167.34 K | 475.7
169.53 K | 479.8
170 K | 480.8
171.71 K | 484.1
173.9 K | 488.4
176.08 K | 492.8
178.26 K | 497.1
180 K | 500.5
180.45 K | 501.5
182.63 K | 505.9
184.82 K | 510.1
187 K | 514.3
189.17 K | 518.6
190 K | 520.4
191.35 K | 523.1
193.52 K | 527.5
195.69 K | 531.7
197.86 K | 536.3
200 K | 540.8
200.02 K | 540.9
202.25 K | 545.6
204.54 K | 550.5
206.82 K | 555.5
209.11 K | 560.4
210 K | 562.3
211.39 K | 565.4
213.67 K | 570.5
215.95 K | 575.6
218.21 K | 580.9
220 K | 585
220.48 K | 586.3
222.74 K | 591.8
225 K | 597.1
227.25 K | 602.4
229.5 K | 607.7
230 K | 609.3
231.74 K | 613.5
233.97 K | 619.4
236.21 K | 625.3
238.43 K | 631.2
